Results published in patent publication US20090184062A1, “METHOD FOR INHIBITING BIOFILM GROWTH” (PPG INDUSTRIES OHIO, INC., priority 2008, published 2009).
Marks after values point to notes of the source that are not given here.

Legend:
[1] = system: Sphaerotilus natans (ATCC 15291) biofilm; experiment: Biocidal effect on an existing Sphaerotilus natans biofilm in Erlenmeyer flasks (agar plate count of surviving organisms); type: cell-based
Procedure: In the following examples, the sheathed filamentous bacterium Sphaerotilus natans (ATCC 15291) was used. A freeze-dried sample of the bacterium was obtained from the American Type Culture Collection (ATCC, Rockville, Md.). ATCC growth medium (CYGA #1103 broth) was prepared by dissolving (per liter of tap water): 5 grams casitone (pancreatic digest of casein, Difco #225930), which is available from Voight Global Distributions, Inc., Lawrence, Kans.; 10 grams of glycerol; and 1 gram of yeast extract. The growth medium was sterilized at 120° C. for 15 minutes. The sample of Sphaerotilus natans obtained from ATCC was cultured in the CYGA growth medium and transferred to agar plates prepared from CYGA medium plus 1.5 weight percent agar. The agar plates were incubated at 30° C. The bacterium from these agar plates was transferred (subcultured) every few weeks to fresh agar plates to maintain the viability of the microorganism.
3-chloro-4,4-dimethyl-2-oxazolidinone (DMO-Cl) reagent was prepared by manually mixing a selected amount of 4,4-dimethyl-2-oxazolidinone (DMO) and a hypochlorite-containing stock solution in an Erlenmeyer flask, and allowing the mixture to stand for 8-10 hours at room temperature (about 23° C.) prior to use in the experiments. The hypochlorite-containing stock solution was prepared by dissolving calcium hypochlorite in deionized water in an Erlenmeyer flask. The amount of calcium hypochlorite used provided a hypochlorite concentration of approximately 1000 mg/L. The DMO used was Sustains Summer Shield (approximately 17.5 wt. % DMO, density of 1.14 g/mL), which is available from PPG Industries, Inc. The mixture was diluted to the desired concentration with sterile tap water before use in the experiments. Sterile tap water used in the experiments was prepared by autoclaving tap water at 120° C. for 15 minutes. The sterile tap water contained no measurable level of chlorine.
A loop full of Sphaerotilus natans (S. Natans) from an Agar plate containing the S. Natans culture was inoculated in 150 mL of CYGA #1103 growth medium and agitated in a temperature-controlled shaker at 30° C. and 150 rpm for 20 hours to prepare a pre-culture. Five (5) mL of this pre-culture were inoculated into each of a series of 250 mL Erlenmeyer flasks containing 150 mL of CYGA growth medium for batch cultivation of the S. Natans. The bacterium were cultivated at 30° C. for 96 hours on a rotary shaker at 150 rpm. At these conditions, a biofilm layer approximately 2-3 mm high formed on the inside wall of each of the Erlenmeyer flasks near the liquid surface. Approximately 50 to 75 percent of the liquid growth medium in the flasks was carefully decanted, leaving the biofilm layer intact. The decanted liquid growth medium was discarded.
For the control, sterile tap water was added to an Erlenmeyer flask. In other tests (as shown in Table I), various levels of hypochlorous acid (HOCl) or 3-chloro-4,4-dimethyl-2-oxazolidinone (DMO-Cl) were added to an Erlenmeyer flask. The amount of tap water used was approximately equal to the volume of decanted growth medium. The flasks were placed on a temperature controlled rotary shaker (30° C., 150 rpm) for 60 minutes. Total chlorine and free chlorine levels in the liquid medium in the flasks were measured at the beginning and at the end of the 60 minute contact time. At the end of the 60 minute contact time, the biofilm ring was carefully scraped from the flask surface and added to the liquid medium in the flask to ensure that the liquid medium contained the entire biofilm population for enumeration. The liquid in the flask was vigorously agitated to uniformly disperse the organisms. The liquid in the flask was sampled and serially diluted in sterile tap water for agar plating to enumerate the surviving organisms. Agar plating was performed in duplicate and the number of microorganism colonies counted after 48 hours of growth at approximately 30° C. […]

[2] = Total and free chlorine levels in the liquid medium at the end of the contact time (Hach DPD test kit); type: physicochemical; settings: for End FC (free chlorine after one hour) / End TC (total chlorine after one hour): Table I, after 60 min with biofilm, expressed as mg/L Cl2; for End FC (free chlorine at end) / End TC (total chlorine at end): Table II, 30 min contact, as Cl2
Procedure: For the control, sterile tap water was added to an Erlenmeyer flask. In other tests (as shown in Table I), various levels of hypochlorous acid (HOCl) or 3-chloro-4,4-dimethyl-2-oxazolidinone (DMO-Cl) were added to an Erlenmeyer flask. The amount of tap water used was approximately equal to the volume of decanted growth medium. The flasks were placed on a temperature controlled rotary shaker (30° C., 150 rpm) for 60 minutes. Total chlorine and free chlorine levels in the liquid medium in the flasks were measured at the beginning and at the end of the 60 minute contact time. At the end of the 60 minute contact time, the biofilm ring was carefully scraped from the flask surface and added to the liquid medium in the flask to ensure that the liquid medium contained the entire biofilm population for enumeration. The liquid in the flask was vigorously agitated to uniformly disperse the organisms. The liquid in the flask was sampled and serially diluted in sterile tap water for agar plating to enumerate the surviving organisms. Agar plating was performed in duplicate and the number of microorganism colonies counted after 48 hours of growth at approximately 30° C.
The procedure of Example 1 was followed except that the concentration of DMO-Cl was varied from 15 μL/L to 60 μL/L, and the contact time was 30 minutes to allow a better opportunity for survival and detection of the S. Natans microorganism. Symbols and footnotes used in Table II that are the same as those found in Table I have the same meaning.

[3] = Table I, 60 min contact, initial total chlorine 5.4 mg/L (DMO-Cl prepared with 50 μL/L Sustain Summer Shield), average of duplicates
[4] = Table I, 60 min contact, initial total chlorine about 1 mg/L (HOCl 1.1; DMO-Cl 1.04, prepared with 50 μL/L Sustain Summer Shield, approx. 10 mg/L DMO), average of duplicates
[5] = initial total chlorine 5.4 mg/L
[6] = initial total chlorine about 1 mg/L (HOCl 1.1; DMO-Cl 1.04)
[7] = DMO-Cl prepared with 15 μL/L Sustain Summer Shield, initial total chlorine 1.2 mg/L
[8] = DMO-Cl prepared with 30 μL/L Sustain Summer Shield, initial total chlorine 1.18 mg/L
[9] = DMO-Cl prepared with 60 μL/L Sustain Summer Shield, initial total chlorine 1.19 mg/L
[10] = HOCl, initial total chlorine 1.1 mg/L

SMILES | Final Cell Count [1, 3] [cfu/mL] | Final Cell Count [1, 4] | Final Cell Count ([1]; Table II, 30 min contact, DMO-Cl prepared with 15 μL/L Sustain Summer Shield (approx. 3 mg/L DMO), initial total chlorine 1.2 mg/L) | Final Cell Count ([1]; Table II, 30 min contact, DMO-Cl prepared with 30 μL/L Sustain Summer Shield (approx. 6 mg/L DMO), initial total chlorine 1.18 mg/L) | Final Cell Count ([1]; Table II, 30 min contact, DMO-Cl prepared with 60 μL/L Sustain Summer Shield (approx. 12 mg/L DMO), initial total chlorine 1.19 mg/L) [cfu/mL] | reduction in viable cell numbers ([1]; existing S. Natans biofilm, 60 minutes contact time (Table I)) [log] | End FC (free chlorine after one hour) [2, 5] [mg/L] | End TC (total chlorine after one hour) [2, 5] [mg/L] | End FC (free chlorine after one hour) [2, 6] [mg/L] | End TC (total chlorine after one hour) [2, 6] [mg/L] | End FC (free chlorine at end) [2, 7] [mg/L] | End TC (total chlorine at end) [2, 7] [mg/L] | End FC (free chlorine at end) [2, 8] [mg/L] | End TC (total chlorine at end) [2, 8] [mg/L] | End FC (free chlorine at end) [2, 9] [mg/L] | End TC (total chlorine at end) [2, 9] [mg/L] | control of biofilm in words ([1]; between 50 and 60 μL/L of DMO with a source of free available chlorine, contact times between 30 and 60 minutes) | Final Cell Count ([1]; Table II, 30 min contact, HOCl, initial total chlorine 1.1 mg/L) | End FC (free chlorine at end) [2, 10] [mg/L] | End TC (total chlorine at end) [2, 10] [mg/L]
CC1(C)COC(=O)N1Cl [DMO-Cl, 3-chloro-4,4-dimethyl-2-oxazolidinone] | 0 | 25^a cfu/mL | 2.1 × 10^4 cfu/mL | 1.6 × 10^4 cfu/mL | 0 | ≥ 3 | 0.2 | 4.7 | 0.1 | 0.4 | 0.05 | 0.52 | 0.07 | 0.47 | 0 | 0.41 | – | – | – | –
CC1(C)COC(=O)N1 [DMO, 4,4-dimethyl-2-oxazolidinone] | – | – | – | – | – | – | – | – | – | – | – | – | – | – | – | – | complete control | – | – | –
OCl [HOCl, Hypochlorous Acid, reference compound] | 0 | 1.9 × 10^4 cfu/mL | – | – | – | – | 1.6 | 3.1 | 0 | 0.3 | – | – | – | – | – | – | – | 2.3 × 10^4 cfu/mL | 0.1 | 0.31
